In ChEMBL document CHEMBL4765258 (Eur J Med Chem, 2020):
Calls of active or inactive are those of the source. No cut-off for these calls is given here.

Columns and labels:
[1] = system: Cricetinae; assay: Displacement of [125l]-lodomelatonin from hamster brain cell QR2 at 100 nM incubated for 60 mins by scintillation counting analysis relative to control; format: tissue-based
[2] = Displacement of [125l]-lodomelatonin from hamster brain cell QR2 incubated for 60 mins by scintillation counting analysis
[3] = Antioxidant activity assessed as AAPH radical scavenging activity preincubated for 15 mins measured every min for 80 mins by ORAC-FL assay relative to trolox; format: functional
[4] = Permeability of compound by PAMPA-BBB assay
[5] = biological target: T1, Nuclear factor erythroid 2-related factor 2 (Homo sapiens) (UniProt Q16236); assay: Activation of NRF2 in human AREc32 cells incubated for 24 hrs by luciferase reporter gene assay; format: cell-based
T1 sequence (whole entry): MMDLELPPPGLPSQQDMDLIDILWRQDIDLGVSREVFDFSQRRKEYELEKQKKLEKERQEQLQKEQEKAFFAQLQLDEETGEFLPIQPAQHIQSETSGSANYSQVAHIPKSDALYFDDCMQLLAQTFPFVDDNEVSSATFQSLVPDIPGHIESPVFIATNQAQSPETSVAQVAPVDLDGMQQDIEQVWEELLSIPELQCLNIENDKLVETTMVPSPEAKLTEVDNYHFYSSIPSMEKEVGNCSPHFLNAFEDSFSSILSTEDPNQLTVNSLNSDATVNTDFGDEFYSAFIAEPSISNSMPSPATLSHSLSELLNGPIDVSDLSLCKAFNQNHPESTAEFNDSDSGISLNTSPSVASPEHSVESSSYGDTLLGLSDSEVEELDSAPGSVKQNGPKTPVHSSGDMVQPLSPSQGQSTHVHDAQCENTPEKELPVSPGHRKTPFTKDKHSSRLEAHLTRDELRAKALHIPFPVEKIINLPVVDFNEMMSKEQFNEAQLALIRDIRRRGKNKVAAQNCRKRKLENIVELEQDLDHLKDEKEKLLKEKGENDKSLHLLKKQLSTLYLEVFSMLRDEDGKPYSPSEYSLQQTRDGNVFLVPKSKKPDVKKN

[6] = biological target: Kelch-like ECH-associated protein 1 (Homo sapiens) (UniProt Q14145); assay: Binding affinity to human recombinant Keap1 Kelch domain expressed in Escherichia coli BL21 (DE3) by SPR assay
[7] = biological target: T2, Melatonin receptor type 1A (Homo sapiens, UniProt P48039); assay: Displacement of [125l]-lodomelatonin from human MT1 receptor expressed in CHO cells incubated for 120 mins by scintillation counting analysis relative to control; format: cell-based
[8] = biological target: T3, Melatonin receptor type 1B (Homo sapiens, UniProt P49286); assay: Displacement of [125l]-lodomelatonin from human MT2 receptor expressed in CHO cells incubated for 120 mins by scintillation counting analysis; format: cell-based
T3 sequence (P49286 whole entry): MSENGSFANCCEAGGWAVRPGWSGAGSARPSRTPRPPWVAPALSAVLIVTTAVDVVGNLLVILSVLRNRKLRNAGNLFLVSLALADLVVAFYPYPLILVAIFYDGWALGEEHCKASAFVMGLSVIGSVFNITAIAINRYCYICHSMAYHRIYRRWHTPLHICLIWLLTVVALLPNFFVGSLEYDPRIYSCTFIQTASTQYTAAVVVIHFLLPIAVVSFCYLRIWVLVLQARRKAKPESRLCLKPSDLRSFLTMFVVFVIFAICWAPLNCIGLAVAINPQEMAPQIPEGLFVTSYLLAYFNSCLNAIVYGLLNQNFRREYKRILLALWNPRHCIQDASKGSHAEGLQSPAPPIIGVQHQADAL

[9] = biological target: T2, Melatonin receptor type 1A; assay: Displacement of [125l]-lodomelatonin from human MT1 receptor expressed in CHO cells incubated for 120 mins by scintillation counting analysis; format: cell-based
[10] = biological target: T4, Amine oxidase [flavin-containing] A (Homo sapiens, UniProt P21397)
T4 sequence (P21397 whole entry): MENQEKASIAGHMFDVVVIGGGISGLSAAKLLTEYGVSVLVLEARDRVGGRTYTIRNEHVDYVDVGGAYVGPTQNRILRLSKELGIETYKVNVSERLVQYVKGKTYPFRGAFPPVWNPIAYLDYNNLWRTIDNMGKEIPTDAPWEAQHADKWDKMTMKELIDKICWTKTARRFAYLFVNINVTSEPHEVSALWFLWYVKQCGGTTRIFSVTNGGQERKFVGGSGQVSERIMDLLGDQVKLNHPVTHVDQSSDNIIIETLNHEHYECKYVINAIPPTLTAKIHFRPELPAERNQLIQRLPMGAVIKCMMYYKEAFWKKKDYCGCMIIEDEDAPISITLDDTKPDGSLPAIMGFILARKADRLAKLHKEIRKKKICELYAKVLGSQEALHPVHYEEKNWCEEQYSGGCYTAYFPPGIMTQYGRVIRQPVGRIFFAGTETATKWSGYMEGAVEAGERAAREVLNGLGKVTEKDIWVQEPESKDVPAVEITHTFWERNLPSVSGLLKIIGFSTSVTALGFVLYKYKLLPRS
Description: Inhibition of human MAO-A using p-tyramine as substrate by Amplex Red reagent based fluorescence analysis

[11] = biological target: T5, Amine oxidase [flavin-containing] B (Homo sapiens, UniProt P27338)
T5 sequence (P27338 whole entry): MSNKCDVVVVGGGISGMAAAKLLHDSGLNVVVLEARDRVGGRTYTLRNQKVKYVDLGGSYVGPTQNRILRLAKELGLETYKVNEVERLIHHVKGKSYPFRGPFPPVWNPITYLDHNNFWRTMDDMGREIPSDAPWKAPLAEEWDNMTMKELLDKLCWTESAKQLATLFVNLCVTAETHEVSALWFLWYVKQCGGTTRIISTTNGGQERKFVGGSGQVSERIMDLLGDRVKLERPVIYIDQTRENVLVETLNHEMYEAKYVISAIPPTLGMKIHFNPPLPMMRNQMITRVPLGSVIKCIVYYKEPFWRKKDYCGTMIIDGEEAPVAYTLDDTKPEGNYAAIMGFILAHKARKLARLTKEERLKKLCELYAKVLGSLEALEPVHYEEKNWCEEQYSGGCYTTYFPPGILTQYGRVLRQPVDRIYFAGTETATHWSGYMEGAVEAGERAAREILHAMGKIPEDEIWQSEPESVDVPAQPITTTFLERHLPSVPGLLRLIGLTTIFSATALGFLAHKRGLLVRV
Description: Inhibition of human MAO-B using p-tyramine as substrate by Amplex Red reagent based fluorescence analysis

[12] = biological target: T6, Polyunsaturated fatty acid 5-lipoxygenase (Homo sapiens, UniProt P09917); assay: Inhibition of human 5-Lipoxygenase using H2DCFDA as substrate preincubated for 5 mins and measured by Spectrophotometric assay
T6 sequence (P09917 whole entry): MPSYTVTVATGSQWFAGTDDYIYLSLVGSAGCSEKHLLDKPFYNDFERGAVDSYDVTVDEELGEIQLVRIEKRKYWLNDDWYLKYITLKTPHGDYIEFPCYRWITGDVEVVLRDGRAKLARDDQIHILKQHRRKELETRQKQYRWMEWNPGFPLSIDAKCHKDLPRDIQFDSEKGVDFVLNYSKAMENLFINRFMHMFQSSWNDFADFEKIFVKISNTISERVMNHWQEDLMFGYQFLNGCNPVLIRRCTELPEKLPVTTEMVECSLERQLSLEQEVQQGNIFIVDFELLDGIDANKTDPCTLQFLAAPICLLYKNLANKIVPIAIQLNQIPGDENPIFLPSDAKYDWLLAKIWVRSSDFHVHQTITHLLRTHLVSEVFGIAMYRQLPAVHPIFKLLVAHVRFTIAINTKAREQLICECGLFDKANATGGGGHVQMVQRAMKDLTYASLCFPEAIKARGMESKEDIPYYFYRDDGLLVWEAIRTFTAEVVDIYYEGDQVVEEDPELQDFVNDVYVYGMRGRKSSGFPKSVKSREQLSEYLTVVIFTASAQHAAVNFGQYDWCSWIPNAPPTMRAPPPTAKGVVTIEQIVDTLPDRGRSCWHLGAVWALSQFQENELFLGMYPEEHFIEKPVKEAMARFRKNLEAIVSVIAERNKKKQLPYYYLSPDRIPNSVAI

Chain of Kelch-like ECH-associated protein 1 (Homo sapiens) (Q14145 whole entry, the tested form may be a part): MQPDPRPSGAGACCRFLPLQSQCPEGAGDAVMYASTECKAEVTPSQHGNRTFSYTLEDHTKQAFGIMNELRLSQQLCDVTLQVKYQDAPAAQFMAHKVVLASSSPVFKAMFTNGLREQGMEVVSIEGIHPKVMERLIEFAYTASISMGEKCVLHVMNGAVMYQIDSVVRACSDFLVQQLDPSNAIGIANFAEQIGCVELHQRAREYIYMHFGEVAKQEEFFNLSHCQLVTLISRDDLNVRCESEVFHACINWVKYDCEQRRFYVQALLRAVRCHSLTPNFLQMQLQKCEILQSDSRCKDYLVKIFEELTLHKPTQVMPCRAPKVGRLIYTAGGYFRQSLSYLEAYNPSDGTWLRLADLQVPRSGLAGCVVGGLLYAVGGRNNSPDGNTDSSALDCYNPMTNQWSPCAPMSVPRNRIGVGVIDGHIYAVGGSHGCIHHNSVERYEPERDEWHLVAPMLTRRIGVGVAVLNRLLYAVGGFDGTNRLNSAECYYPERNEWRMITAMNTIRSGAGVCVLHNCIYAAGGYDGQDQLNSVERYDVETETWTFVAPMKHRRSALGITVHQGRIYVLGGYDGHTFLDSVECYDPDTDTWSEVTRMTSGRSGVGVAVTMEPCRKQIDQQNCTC
T2 sequence (P48039 whole entry): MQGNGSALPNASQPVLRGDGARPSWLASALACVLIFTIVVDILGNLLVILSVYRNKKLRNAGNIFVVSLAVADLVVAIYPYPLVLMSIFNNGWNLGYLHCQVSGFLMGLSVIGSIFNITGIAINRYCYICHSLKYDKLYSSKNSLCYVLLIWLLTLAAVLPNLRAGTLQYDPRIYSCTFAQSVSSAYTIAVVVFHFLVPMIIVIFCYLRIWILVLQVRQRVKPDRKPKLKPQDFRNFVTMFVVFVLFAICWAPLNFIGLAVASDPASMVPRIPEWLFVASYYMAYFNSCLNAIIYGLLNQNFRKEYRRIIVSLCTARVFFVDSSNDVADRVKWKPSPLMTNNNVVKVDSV

**Q.** What does the source list for `COc1ccc2[nH]cc(CCc3n[nH]c(=O)o3)c2c1`?
**A.** inhibition [1]: 5%; Ki [2]: > 100 nM; Activity [3]: 2.7 equiv; Papp [4]: < 2 ×10⁻⁶ cm/s

**Q.** Which CD ([5]; filed as activator) does the source give for `C[S+]([O-])CCCCN=C=S` (centres undefined) here?
**A.** The CD was 0.54 µM.

**Q.** Which Activity [3] does the source give for `COc1ccc2[nH]cc(CCc3nn(CC4CCC4)c(=O)o3)c2c1` here?
**A.** Its Activity is 2.2 equiv.

**Q.** For `COc1cc2cccc(/C=C/c3n[nH]c(=O)o3)c2cc1OC`, which Activity [3] is on record?
**A.** The Activity was < 0.1 equiv.

**Q.** And the Activity [6]?
**A.** Its Activity is “inactive”.

**Q.** What about the inhibition [7] of the same compound?
**A.** Its inhibition is 63%.

**Q.** What about the Ki [8] of the same compound?
**A.** The Ki was 69 nM.

**Q.** What about the Ki [9] of the same compound?
**A.** Its Ki is > 1000 nM.

**Q.** What about the CD [5] of the same compound?
**A.** Its CD is > 30 µM.

**Q.** With `C#CCNC(=O)/C=C/c1c[nH]c2ccc(OC)cc12` as the compound, how does the Activity [6] read?
**A.** The Activity was “Active”.

**Q.** What about the CD ([5]; filed as activator) of the same compound?
**A.** Its CD is 1.76 µM.

**Q.** Which CD [5] does the source give for `COc1ccc2cccc(/C=C/c3n[nH]c(=O)o3)c2c1` here?
**A.** Its CD is > 30 µM.

**Q.** What does the source list for `COc1ccc2[nH]cc(CC(C)c3n[nH]c(=O)o3)c2c1` (centres undefined)?
**A.** Activity [6]: inactive; CD [5]: > 30 µM

**Q.** With `CCCCCCn1nc(CCc2c[nH]c3ccc(OC)cc23)oc1=O` as the compound, how does the Activity [3] read?
**A.** The Activity was 3 equiv.

**Q.** What does the source list for `C=CCNC(=O)/C=C/c1c[nH]c2ccc(OC)cc12`?
**A.** Activity [6]: inactive; CD ([5]; filed as activator): 27.4 µM

**Q.** Which Ki [2] does the source give for `COc1ccc2[nH]cc(CCNC(C)=O)c2c1` [MELATONIN] here?
**A.** The Ki was 77 nM.

**Q.** And the Activity [3]?
**A.** The Activity was < 0.1 equiv.

**Q.** For `COc1ccc2c(c1)C(/C=C/c1n[nH]c(=O)o1)=CCC2`, which CD [5] is on record?
**A.** The CD was > 30 µM.

**Q.** Which Activity [6] does the source give for `CCCn1nc(CCc2c[nH]c3ccc(OC)cc23)oc1=O` here?
**A.** Its Activity is “inactive”.

**Q.** And the Activity ([5]; filed as activator)?
**A.** The Activity was 2.3 equiv.

**Q.** Which results are given for `C#CCn1nc(/C=C/c2c[nH]c3ccc(OC)cc23)oc1=O`?
**A.** Activity [6]: Active; CD ([5]; filed as activator): 15.1 µM

**Q.** For `COc1ccc2[nH]cc(/C=C/c3n[nH]c(=O)o3)c2c1`, which Activity [6] is on record?
**A.** The Activity was “Active”.

**Q.** What about the CD [5] of the same compound?
**A.** The CD was > 60 µM.

**Q.** Which IC50 [10] does the source give for `CNc1nnc(CCc2c[nH]c3ccc(OC)cc23)o1` here?
**A.** Its IC50 is > 50000 nM.

**Q.** What about the Ki [2] of the same compound?
**A.** The Ki was 330 nM.

**Q.** What about the Activity [3] of the same compound?
**A.** The Activity was 1.8 equiv.

**Q.** What about the IC50 [11] of the same compound?
**A.** The IC50 was 37000 nM.

**Q.** And the Ki [8]?
**A.** The Ki was 110 nM.

**Q.** And the IC50 [12]?
**A.** The IC50 was 60600 nM.

**Q.** And the Ki [9]?
**A.** The Ki was 550 nM.

**Q.** For `CCCCCCCn1nc(CCc2c[nH]c3ccc(OC)cc23)oc1=O`, which Activity [3] is on record?
**A.** Its Activity is 2.1 equiv.

**Q.** With `COc1ccc2[nH]cc(CCc3nn(CC4CCCC4)c(=O)o3)c2c1` as the compound, how does the Activity [3] read?
**A.** The Activity was 2.8 equiv.

**Q.** For `COc1ccc2[nH]cc(CCc3nn(CCCc4ccccc4)c(=O)o3)c2c1`, which Activity [3] is on record?
**A.** The Activity was 2.7 equiv.
